Assay results as given in patent publication US11000033B2, “Ketone or oxime compound, and herbicide” (NISSAN CHEMICAL CORPORATION, priority 2014, dated 2021).

Legend:
Type in all cases: in vivo
wheat = assay: Test Example 4: effect on crop by soil treatment (symbol e); conditions: 320 g/ha
Method in brief: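 Crop seed is sown in spots together with several weed species in a box of sterilized diluvial soil. It is covered by about 1.5 cm of soil and kept in a greenhouse held between 25° C. and 30° C.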

Scirpus juncoides [1] = assay: Test Example 2: herbicidal activity, application during weed generation in submerged conditions (symbol B); conditions: Table 23; application herbicide amount 320 g/ha; grade 0-5 by criteria of Test Example 1
Method in brief: (§1)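 Seeds sown in flooded alluvial soil (4 cm water) were grown in a 25-30° C greenhouse. At the one- to two-leaf stage, diluted emulsion of compound was applied to the water surface at a predetermined rate. Effect was scored 3 weeks later.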

Amaranthus retroflexus [2] = assay: Test Example 5: herbicidal effect by foliage application, plastic box (symbol N); conditions: 320 g/ha, 3 weeks after application
Method in brief: (§2)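 Leaf-applied emulsion, water-diluted to a preset herbicide dose, on two-week-old seedlings raised in a 25° C. to 30° C. greenhouse; injury rated at 3 weeks using earlier criteria.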

Amaranthus retroflexus [3] = assay: Test Example 4: herbicidal effect by soil treatment (symbol N); conditions: 320 g/ha
Method in brief: (§3)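 Seeds were sown in sterilized diluvial soil, covered with about 1.5 cm of soil, and the soil surface was sprayed with a water-diluted emulsion of the compound at a predetermined rate. Plants grew in a greenhouse at 25° C. to 30° C.; effects were scored visually 3 weeks after application.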

Scirpus juncoides [4] = assay: Test Example 1: herbicidal activity, application before weed generation in submerged conditions (symbol B); conditions: application herbicide amount 320 g/ha
Method in brief: (§4)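 Weed control was rated three weeks after treatment on a 0–5 scale, from 5% or lower up to 90% or more. Pre-emergence water-surface application of diluted emulsion at a predetermined rate was made on the day of sowing, in flooded (4 cm water) pots containing rice seedlings, kept at 25–30 °C under glass.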

Apera spica-venti = assay: Test Example 4: herbicidal effect by soil treatment (symbol L); conditions: 320 g/ha
Method in brief: as §3

transplanted rice plant = assay: Test Example 1: effect on crop, application before weed generation in submerged conditions (symbol a); conditions: application herbicide amount 320 g/ha
Method in brief: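 Rice at 2.5 leaf stage transplanted into submerged soil (4 cm depth) sown with three weed species; herbicide applied before weed emergence.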

[5] = tested on: Echinochloa oryzacola Vasing.; assay: Test Example 1: herbicidal activity, application before weed generation in submerged conditions (symbol A); conditions: application herbicide amount 320 g/ha
Method in brief: as §4

Setaria viridis = assay: Test Example 4: herbicidal effect by soil treatment (symbol G); conditions: 320 g/ha
Method in brief: as §3

Alopecurus myosuroides = assay: Test Example 5: herbicidal effect by foliage application, plastic box (symbol J); conditions: 320 g/ha, 3 weeks after application
Method in brief: as §2

Cyperus difformis = assay: Test Example 3: herbicidal effect by foliage application, Wagner pot (symbol E); conditions: application herbicide amount 320 g/ha
Method in brief: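 Plants sown in submerged alluvial soil (water depth 0.1–0.5 cm) in a 25–30 °C greenhouse and grown 14 days. An emulsion of the compound diluted in water to a set herbicide amount was sprayed uniformly on foliage. Effect on each plant scored 3 weeks after application.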

[6] = tested on: Echinochloa crus-galli var. crus-galli; assay: Test Example 5: herbicidal effect by foliage application, plastic box (symbol H); conditions: 320 g/ha, 3 weeks after application
Method in brief: as §2

[7] = tested on: Echinochloa oryzacola Vasing.; assay: Test Example 2: herbicidal activity, application during weed generation in submerged conditions (symbol A); conditions: Table 23; application herbicide amount 320 g/ha; grade 0-5 by criteria of Test Example 1
Method in brief: as §1

| Compound | e: wheat, effect grade on crop (wheat) | Herbicidal effect grade, B: Scirpus juncoides (Scirpus juncoides [1]) | N: Amaranthus retroflexus, herbicidal effect (criteria 0-5) (Amaranthus retroflexus [2]) | N: Amaranthus retroflexus, herbicidal effect grade (Amaranthus retroflexus [3]) | Herbicidal effect grade, B: Scirpus juncoides (Scirpus juncoides [4]) | L: Apera spica-venti, herbicidal effect grade (Apera spica-venti) | Effect grade on crop, a: transplanted rice plant (transplanted rice plant) | Herbicidal effect grade, A: Echinochloa oryzacola Vasing. [5] | G: Setaria viridis, herbicidal effect grade (Setaria viridis) | J: Alopecurus myosuroides, herbicidal effect (criteria 0-5) (Alopecurus myosuroides) | herbicidal effect on E, grade 0-5 (Cyperus difformis) | H: Echinochloa crus-galli var. crus-galli, herbicidal effect (criteria 0-5) [6] | Herbicidal effect grade, A: Echinochloa oryzacola Vasing. [7] |
| --- | --- | --- | --- | --- | --- | --- | --- | --- | --- | --- | --- | --- | --- |
| CC(CC1CC(O)=C(c2c(C)cc(C)cc2C)C1=O)=NOCC1OCCO1 (stereo not drawn) [1-111] | 5 (Herbicidal ratio of 90% or more (almost completely withered)) | 1 (Herbicidal ratio of 5% or higher and lower than 20%) | 0 (Herbicidal ratio of 5% or lower (almost no effect)) | 0 (Herbicidal ratio of 5% or lower (almost no effect)) | 2 (Herbicidal ratio of 20% or higher and lower than 40%) | 5 (Herbicidal ratio of 90% or more (almost completely withered)) | 5 (Herbicidal ratio of 90% or more (almost completely withered)) | 5 (Herbicidal ratio of 90% or more (almost completely withered)) | 5 (Herbicidal ratio of 90% or more (almost completely withered)) | 5 (Herbicidal ratio of 90% or more (almost completely withered)) | 5 (Herbicidal ratio of 90% or more (almost completely withered)) | 5 (Herbicidal ratio of 90% or more (almost completely withered)) | 5 (Herbicidal ratio of 90% or more (almost completely withered)) |
| COc1ccc(CON=C(C)CC2CC(O)=C(c3c(C)cc(C)cc3C)C2=O)cc1 (stereo not drawn) [1-112] | 0 (Herbicidal ratio of 5% or lower (almost no effect)) | 4 (Herbicidal ratio of 70% or higher and lower than 90%) | 0 (Herbicidal ratio of 5% or lower (almost no effect)) | 0 (Herbicidal ratio of 5% or lower (almost no effect)) | 5 (Herbicidal ratio of 90% or more (almost completely withered)) | 5 (Herbicidal ratio of 90% or more (almost completely withered)) | 5 (Herbicidal ratio of 90% or more (almost completely withered)) | 5 (Herbicidal ratio of 90% or more (almost completely withered)) | 5 (Herbicidal ratio of 90% or more (almost completely withered)) | 5 (Herbicidal ratio of 90% or more (almost completely withered)) | 5 (Herbicidal ratio of 90% or more (almost completely withered)) | 5 (Herbicidal ratio of 90% or more (almost completely withered)) | 4 (Herbicidal ratio of 70% or higher and lower than 90%) |
| CC(CC1CC(O)=C(c2c(C)cc(C)cc2C)C1=O)=NOCc1cccc(Cl)c1 (stereo not drawn) [1-114] | 0 (Herbicidal ratio of 5% or lower (almost no effect)) | 3 (Herbicidal ratio of 40% or higher and lower than 70%) | 1 (Herbicidal ratio of 5% or higher and lower than 20%) | 0 (Herbicidal ratio of 5% or lower (almost no effect)) | 5 (Herbicidal ratio of 90% or more (almost completely withered)) | 5 (Herbicidal ratio of 90% or more (almost completely withered)) | 5 (Herbicidal ratio of 90% or more (almost completely withered)) | 5 (Herbicidal ratio of 90% or more (almost completely withered)) | 5 (Herbicidal ratio of 90% or more (almost completely withered)) | 4 (Herbicidal ratio of 70% or higher and lower than 90%) | 2 (Herbicidal ratio of 20% or higher and lower than 40%) | 5 (Herbicidal ratio of 90% or more (almost completely withered)) | 4 (Herbicidal ratio of 70% or higher and lower than 90%) |
